Experiments:
[1] = test system: Sprague-Dawley rats; test: Air pouch inflammatory model with croton oil (Examples XII, XVIII); assay type: in vivo, rat; conditions: mithramycin 25 μg/kg intraperitoneally, repeated at 24 hour intervals; end of 5 days; versus rats without drug
[2] = test system: argininosuccinate synthetase mRNA; test: RT-PCR of argininosuccinate synthetase mRNA in induced rat aortic smooth muscle cells (Example III); assay type: cell-based; conditions: LPS 30 μg/ml plus interferon-gamma 50 ng/ml with mithramycin, 6 hours; FIG. 3
Description: Rat aortic smooth muscle cells were grown as described in Example I and were treated with 30 μg/ml bacterial lipopolysaccharide in combination with 50 ng/ml interferon-gamma. […] RNA was extracted by a modified guanidinium isothiocyanate method (RNAzol; Cinna/Biotecz, Houston, Tex.). Reverse transcriptase-polymerase chain reaction was performed by standard methods using 1 μg of total RNA. This was followed by polymerase chain reaction amplification using synthetic gene-specific primers for rat argininosuccinate synthetase as described in Amaya, Y., et al, J. Biochem. (Tokyo) 103, 177-181 (1988), for argininosuccinate lyase as described in Surh, L. C., et al, Nucleic Acids Research, 16, 9352 (1988) and murine-inducible nitric oxide synthase as described in Lyons, C. R., et al, J. Biol. Chem. 267, 6370-6374 (1992). The primers are specifically described in Hattori, Y., et al, J. Biol. Chem. 269, 9405-9408 (1994). Polymerase chain reaction amplification was performed according to the following schedule: denaturation, annealing, and elongation at 95, 55 and 72° C. for 30 sec, 30 sec and 1 min, respectively, for 30 cycles. […] Polymerase chain reaction products were electrophoresed on a 1.5% agarose gel containing ethidium bromide and visualized by UV-induced fluorescence. […]

[3] = test system: argininosuccinate synthetase; test: Argininosuccinate synthetase (AS) activity of rat aortic smooth muscle cells induced with LPS/interferon-gamma in presence of test agent (Example I); assay type: cell-based; conditions: mithramycin 0.001 to 10 μg/ml with LPS 30 μg/ml plus interferon-gamma 50 ng/ml, 24 hours; FIG. 1
Description: (§1) Aortic smooth muscle cells were cultured by explanting segments of the medial layer of aortae from adult male Fischer 344 rats. Aortae were removed aseptically and freed of adventitial and endothelial cells by scraping both the lumenal and abluminal surfaces. Medial fragments (1-2 mm) were allowed to attach to dry Primaria 25 cm^2 tissue culture flasks (Falcon; Oxnard, Calif.) which were kept moist with growth medium until cells emerged. Cultures were fed twice weekly with medium 199 containing 10% fetal bovine serum, 25 mM HEPES, 2 mM L-glutamine, 40 μg/ml endothelial cell growth supplement (Biomedical Technologies; Stoughton, Mass.) and 10 μg/ml gentamycin (GIBCO; Grand Island, N.Y.). When primary cultures became confluent, they were passaged by trypsinization and the explants were discarded. Cells in passage 10-15 were seeded at 20,000/well in 96-well plates. […]
Argininosuccinate synthetase activity was assayed based on the conversion of [^14 C]aspartate to [^14 C]argininosuccinate, as described in O'Brien, W. E., Biochemistry 18, 5353-5356, 1979, with the exception that aspartate was present at a concentration of 30 μm (0.021 μCi/nmol). […] Reactions were allowed to proceed for 90 minutes at 37° C before termination and quantification of the [^14 C]argininosuccinate formed, using ion exchange chromatography on Dowex 1-X8 (200-400 mesh, Bio-Rad).

[4] = test system: nitric oxide synthase; test: Nitric oxide synthase (NOS) activity of cytosol of rat aortic smooth muscle cells induced with LPS/interferon-gamma in presence of test agent (Example I); assay type: cell-based; conditions: mithramycin 0.001 to 10 μg/ml with LPS 30 μg/ml plus interferon-gamma 50 ng/ml, 24 hours; FIG. 1
Description: as §1
Nitric oxide formation by smooth muscle cell cytosol was measured using a spectrophotometric kinetic microplate assay based on the increase in A405 accompanying the oxidation of Fe^2+ -myoglobin by nitric oxide. […] Assays were performed in triplicate with A405 recorded for each sample every 18 seconds for a period of 15 minutes. The rate of nitric oxide synthesis was calculated from the rate of increase in A405 by linear regression analysis. […]

COC(C(=O)C(O)C(C)O)C1Cc2cc3cc(OC4CC(OC5CC(O)C(O)C(C)O5)C(O)C(C)O4)c(C)c(O)c3c(O)c2C(=O)C1OC1CC(OC2CC(OC3CC(C)(O)C(O)C(C)O3)C(O)C(C)O2)C(O)C(C)O1 (centres unmarked) [mithramycin]
inflammation [1]: less inflammation | nitrite in the fluid exudate of the lesion [1]: significantly less nitrite | gene transcription of argininosuccinate synthetase (mRNA level) [2]: inhibits gene transcription of argininosuccinate synthetase | argininosuccinate synthetase activity [3]: as a function of its concentration blocks argininosuccinate synthetase activity | nitric oxide synthase activity [4]: blocks argininosuccinate synthetase activity as well as nitric oxide synthase activity

Source: patent publication US5545625A, “Preventing conversion of citrulline to argininosuccinate to limit pathological nitric oxide overproduction” (The Medical College of Wisconsin Research Foundation, Inc., priority 1994, dated 1996)
